Article PMC8039949, “A novel small-molecule PROTAC selectively promotes tau clearance to improve cognitive functions in Alzheimer-like models” (Theranostics, 2021)
Read-outs that look alike come from different tables or passages of the source.

Assays:
human tau (hTau) = molecular target: T1, human tau (hTau) (Homo sapiens, UniProt P10636); assay: Tau clearance in HEK293-hTau cells by Western blotting; assay type: cell-based
T1 construct: expressed in transfected cells
Method: (§1) SH-SY5Y human neuroblastoma cells were cultured in 90% DME/F-12 medium (HyClone, SH30023.01) with 10% fetal bovine serum (FBS) (Biological Industries, 04-001-1ACS) and penicillin (100 U/mL)/ streptomycin (100 μg/mL) in a 37 °C incubator with humidified atmosphere of 5% CO2. Human embryonic kidney 293 cells (HEK293) or HEK293 with stable expression of wild-type full-length human tau (termed as HEK293-hTau) were cultured in 90% DMEM/High Glucose medium (HyClone, SH30022.01) containing 10% FBS and 200 μg/mL G418 (ThermoFisher Scientific, 10131027), in a humidified atmosphere of 5% CO2 at 37 °C. Neofect (DNA transfection reagent, TF20121201) was used for plasmids transfection. The cells were placed onto 6-well or 12-well plates. Plasmids (EGFP-hTau or 3xFlag-hTau or the vector), neofect and Opti-MEM medium (Gibco, 31985-070) were made into a mixture in a ratio of 1 μg: 1 μL : 100 μL and then added into each well of the plate. To inhibit proteasome activity, HEK293-hTau cells were cultured with DMEM/High medium containing 20 μM C004019 with or without 10 μM MG132, or the same volume of vehicle (DMSO) for 24 h at 37 °C. To induce tau hyperphosphorylation, SH-SY5Y cells were cultured with DME/F-12 medium containing 10 μM C004019 with or without 1 μM GFX and 1 μM WO for 24 h at 37 °C.
(§2) The cells or hippocampal/cortex tissues were homogenized for ~ 30 min on ice in buffer [50 mM Tris·HCl pH 7.4-7.5, 100 mM NaCl, 1% (vol/vol) Triton X-100, 5 mM EDTA, 1:100 PMSF, 1:1,000 protease inhibitor cocktail containing 4-(2-Aminoethyl)-benzenesulfonyl fluoride hydrochloride, aprotinin, bestatin, leupeptin, E-64, and pepstatin A stored at 4 °C], and then centrifuged at 12,000 × g at 4 °C for 20 min. The supernatant was collected and the protein levels were analyzed using bicinchoninic acid (BCA, KF016, Sigma-Aldrich) by following the manufacturer's instruction (served as soluble protein). The pellet was further incubated with 8% (wt/vol) SDS buffer at 4 °C and then treated by ultrasonic wave to reach a complete resuspension. […] Immunoreactive bands were quantitatively analyzed by Image J2x software.

[1] = Pharmacokinetics study, plasma and brain concentration by LC-MS/MS; assay type: in vivo; conditions: male, mouse, sc, C57BL/6 mice, subcutaneous 3 mg/kg
Method: Male C57BL/6 mice (age of 6-8 weeks with bodyweight 21-23 g; N = 24) were purchased from JH Laboratory Animal Co. LTD. Subcutaneous injection dosing solution was prepared by diluting C004019 stock solution in 20% HP-β-CD in saline. The animals were administrated with C004019 at a dose of 3 mg/kg (10 mL/kg) via subcutaneous injection (N = 3 per timepoint), and then were anaesthetized via isoflurane at the designated time points, followed by collection of approximately 110 µL of blood sample into EDTA-2K tubes via retro-orbital puncture or cardiac puncture for terminal bleeding. The brain samples were collected at the designated time points after blood collection. All the samples were first maintained in wet ice and then the blood samples were centrifuged (2000 g, 4 °C, 5 min) to obtain plasma within 15 minutes post sampling. Afterwards, all the plasma samples and brain samples were stored at approximately -70 °C until analysis. The concentration of C004019 in plasma and brain was determined using liquid chromatograph mass spectrometry/mass spectrometry (LC-MS/MS) with a UPLC/MS-MS-015 (QTRAP 5500).

tau = assay: Tau clearance in SH-SY5Y cells by Western blotting; assay type: cell-based, human
Method: as §1, §2

HEK293-hTau cells = assay: CCK-8 cell viability assay; assay type: cell-based, human; conditions: 0.01, 0.1, 1, 10, 20 and 100 μM, 24 h
Method: Cell viability was assessed using CCK-8 kit by following the manufacturer's instructions. The cells were seeded at a concentration of 5,000 cells per well in a 96-well plate and then treated with various concentrations of C004019 (0, 0.01, 0.1, 1, 10, 20 and 100 μM) for 24 h. After the treatments, the culture medium was removed, and 10 μL of CCK-8 in 90 μL of medium was added. After incubating for 30 min at 37 °C, the absorbance was measured at 450 nm using a microplate reader (BioTek, 250058).

T1 sequence (P10636 1-441 isoform P10636-8): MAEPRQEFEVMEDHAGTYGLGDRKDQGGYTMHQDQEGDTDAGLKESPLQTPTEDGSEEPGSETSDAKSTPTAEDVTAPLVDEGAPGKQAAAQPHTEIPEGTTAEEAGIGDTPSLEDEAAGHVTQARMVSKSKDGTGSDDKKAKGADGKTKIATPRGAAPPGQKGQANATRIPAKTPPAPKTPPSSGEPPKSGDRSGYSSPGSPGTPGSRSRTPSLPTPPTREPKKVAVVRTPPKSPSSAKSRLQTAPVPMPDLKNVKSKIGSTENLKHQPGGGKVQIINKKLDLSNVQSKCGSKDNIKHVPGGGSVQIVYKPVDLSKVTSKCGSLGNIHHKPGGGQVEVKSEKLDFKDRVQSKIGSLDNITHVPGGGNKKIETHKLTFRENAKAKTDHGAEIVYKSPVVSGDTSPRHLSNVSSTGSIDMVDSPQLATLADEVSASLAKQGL

With `CC(=O)N1CCCN(c2nc(NCCc3cccs3)nc(N(C)CC(=O)NCCOCCOCCOCC(=O)N[C@H](C(=O)N3C[C@H](O)C[C@H]3C(=O)NCc3ccc(-c4scnc4C)cc3)C(C)(C)C)n2)CC1` [C004019] the “total tau (Tau5) and p-tau level” value (human tau (hTau); HEK293-hTau cells, Western blotting) was “concentration-dependent reduction”, the DC50 (human tau (hTau); cultured cells, read-out: DC50 (tau degrader)) was ~5 nM and the brain-to-plasma Cmax ratio ([1]; brain/plasma, read-out: ratio of brain tissue maximal concentration to the plasma maximal concentration (Kpuu value)) was 0.00866. The AUC(0-inf) ([1]; brain, read-out: AUCINF in brain) was 12.6 ng·h/mL, the AUC(0-t) ([1]; brain, read-out: AUClast in brain) was 8.42 ng·h/mL and the Cmax ([1]; brain, read-out: Cmax in brain (maximal brain concentration)) was 10.8 ng/mL. It also gave an MRT inf ([1]; brain, read-out: MRTINF in brain) of 1.8 h, a half-life ([1]; brain, read-out: T1/2 in brain (converted)) of 1.29 h and a Tmax ([1]; brain, read-out: Tmax in brain) of 0.167 h. It also gave an AUC(0-inf) ([1]; plasma, read-out: AUCINF in plasma) of 1800 ng·h/mL, an AUC(0-t) ([1]; plasma, read-out: AUClast in plasma) of 1190 ng·h/mL and a Cmax ([1]; plasma, read-out: Cmax in plasma) of 1250 ng/mL. For the same compound, the MRT inf ([1]; plasma, read-out: MRTINF in plasma) was 1.87 h, the half-life ([1]; plasma, read-out: T1/2 in plasma (converted)) was 1.33 h and the Tmax ([1]; plasma, read-out: Tmax in plasma) was 0.167 h. For the same compound, the “p-tau and total tau levels under induced tau hyperphosphorylation” value (tau; 10 μM C004019 with WO (1 μM) plus GFX (1 μM), 24 h) was “could efficiently decrease p-tau and total tau levels”, the phosphorylated tau level (tau; 20 μM) was “could decrease phosphorylated tau” and the “total tau (Tau5) and p-tau level” value (tau; Western blotting) was “concentration-dependent reduction”. For the same compound, the “cell viability (CCK8 assay)” value (HEK293-hTau cells) was “did not induce any significant change in cell viability”.
